Measured values taken from the supplement of paper PMC10883282.
± gives the standard deviation of the averaged measurements.

Columns and labels:
Test in all cases: relative viability vs DMSO control (72 h) (fraction); higher = more viable cells
SYO-1 = system: SYO-1
Method in brief: (§1)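 Sarcoma cell lines went into 384-well plates at densities chosen to reach 80–90% confluence. After 24 h, each well received 2.5 µl of serially diluted compound, with source plates running from 10 mM to 0.0002 mM, and the plates were kept 72 h at 37 °C, 5% CO2, alongside 0.1% DMSO vehicle and a 5 µM positive control. Relative viability was derived from ATPLite readings as percent growth and averaged over up to triplicate wells. The data were then rescaled so that 1 stands for full and 0 for none.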

KHOS-NP = system: KHOS-NP
Method in brief: as §1

SW684 = system: SW684
Method in brief: as §1

RD-ES = system: RD-ES
Method in brief: as §1

HT1080 = system: HT1080
Method in brief: as §1

CNC(=O)c1c(C)oc2cc(Oc3ncnc4cc(OC)c(OC)cc34)ccc12 [Fruquintinib]
relative viability
Conditions	HT1080	KHOS-NP	RD-ES	SW684	SYO-1
0.00017 µM	1.08 ± 0.038	1.114 ± 0.0078	0.93 ± 0.063	1.15 ± 0.028	1.01 ± 0.038
0.00051 µM	1.06 ± 0.031	1.11 ± 0.037	0.979 ± 0.037	1.12 ± 0.012	1.034 ± 0.003
0.00152 µM	1.058 ± 0.0099	1.11 ± 0.036	0.968 ± 0.029	1.16 ± 0.06	0.971 ± 0.036
0.00457 µM	1.04 ± 0.034	1.09 ± 0.013	0.952 ± 0.027	1.18 ± 0.016	0.963 ± 0.068
0.01372 µM	1.07 ± 0.05	1.11 ± 0.031	0.971 ± 0.035	1.15 ± 0.053	0.921 ± 0.039
0.04115 µM	1.04 ± 0.026	1.099 ± 0.01	0.935 ± 0.02	1.15 ± 0.038	0.918 ± 0.043
0.1235 µM	1.03 ± 0.035	1.08 ± 0.011	0.968 ± 0.04	1.1 ± 0.042	0.817 ± 0.046
0.3704 µM	1.04 ± 0.03	1.07 ± 0.027	0.934 ± 0.05	1.13 ± 0.04	0.651 ± 0.024
1.111 µM	1.054 ± 0.0096	1.07 ± 0.024	0.945 ± 0.054	1.12 ± 0.023	0.498 ± 0.059
3.333 µM	1.02 ± 0.026	1.03 ± 0.028	0.917 ± 0.02	1.09 ± 0.029	0.417 ± 0.043
10 µM	1.01 ± 0.036	1.027 ± 0.0046	0.928 ± 0.04	1.07 ± 0.038	0.402 ± 0.05

COc1cc2ncnc(Nc3ccc(F)c(Cl)c3)c2cc1OCCCN1CCOCC1 [Gefitinib]
relative viability
Conditions	HT1080	KHOS-NP	RD-ES	SW684	SYO-1
0.00017 µM	1.05 ± 0.033	1.09 ± 0.018	0.944 ± 0.059	1.09 ± 0.093	1.01 ± 0.018
0.00051 µM	1.1 ± 0.024	1.08 ± 0.028	0.967 ± 0.041	1.16 ± 0.015	1.02 ± 0.041
0.00152 µM	1.04 ± 0.045	1.08 ± 0.042	0.954 ± 0.036	1.09 ± 0.037	0.999 ± 0.023
0.00457 µM	1.07 ± 0.017	1.08 ± 0.034	0.965 ± 0.04	1.17 ± 0.096	0.998 ± 0.021
0.01372 µM	1.06 ± 0.039	1.096 ± 0.01	0.97 ± 0.018	1.1 ± 0.03	0.999 ± 0.015
0.04115 µM	1.03 ± 0.046	1.07 ± 0.019	0.978 ± 0.04	1.15 ± 0.077	0.9815 ± 0.0094
0.1235 µM	1.047 ± 0.0077	1.06 ± 0.038	0.973 ± 0.042	1.07 ± 0.099	1 ± 0.012
0.3704 µM	1.07 ± 0.039	1.06 ± 0.015	0.987 ± 0.051	1.16 ± 0.013	0.983 ± 0.028
1.111 µM	1.05 ± 0.061	1.08 ± 0.018	0.962 ± 0.032	1.1 ± 0.034	0.955 ± 0.011
3.333 µM	1.04 ± 0.023	1.08 ± 0.033	0.844 ± 0.017	1.15 ± 0.033	0.829 ± 0.011
10 µM	0.483 ± 0.064	0.898 ± 0.036	0.464 ± 0.013	0.424 ± 0.029	0.104 ± 0.031
